The values below come from PubChem BioAssay (NCI).

“And” between values parts separate entries of the source, which are not always exact repeats. Identical values can stand only once.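 96-well plates; 48 h exposure; 5 concentrations. Endpoints by linear interpolation between flanking doses. Not reached: highest tested concentration assigned. GI50 marks 50% less growth. TGI marks complete inhibition of growth.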 Bounds are passed on as bounds.

Test systems include UO-31 renal; 786-0 renal; NCI-H226 lung; SNB-75 CNS; SR leukemia; HOP-92 NSCLC; UACC-62 melanoma; U251 CNS; HCT-15 colon; K-562 leukemia.
Holding throughout (assay): inhibition of tumour cell growth, NCI panel, 48 h

Regarding `[N-]=[N+]=NC(CI)c1cn([C@H]2C[C@H](O)[C@@H](CO)O2)c(=O)[nH]c1=O` (stereo partly drawn), the TGI in the assay with UO-31 renal, in the assay on 786-0 renal, in the assay on NCI-H226 lung, in the assay with SNB-75 CNS, in the assay on SR leukemia and in the assay with HOP-92 NSCLC was greater than 100 µM each time. Also, the TGI in the assay with UACC-62 melanoma, with U251 CNS, in the assay with HCT-15 colon and in the assay with K-562 leukemia was greater than 100 µM each time.

Regarding `CC1(C)[C@@H](OC(N)=O)[C@H]2O[C@H]2[C@]2(CO)[C@H]3CC[C@]4(C)[C@@H](c5ccc(=O)oc5)[C@@H](Cl)C[C@]4(O)C3=CC[C@@H]12`, the GI50 in the assay on UO-31 renal is 0.00645 µM; in the assay on 786-0 renal, 0.0052 µM; with NCI-H226 lung it was 0.0061 µM; in the assay with SNB-75 CNS it was 0.00467 µM; with SR leukemia, 0.00681 µM; in the assay with HOP-92 NSCLC it was 0.0127 µM. Moreover, the GI50 is 0.00892 µM in the assay with UACC-62 melanoma, 0.00858 µM in the assay on U251 CNS, 0.00798 µM with HCT-15 colon and 0.00978 µM in the assay with K-562 leukemia. Also, the TGI came to 0.0228 µM in the assay with UO-31 renal; 0.0136 µM with 786-0 renal; 0.0152 µM with NCI-H226 lung; 0.0138 µM in the assay with SNB-75 CNS; 0.0195 µM with SR leukemia; 0.0921 µM with HOP-92 NSCLC. Further, the TGI in the assay on UACC-62 melanoma stood at 0.0332 µM; in the assay with U251 CNS, 0.0297 µM; in the assay on HCT-15 colon it was 0.0304 µM; with K-562 leukemia, 0.0547 µM.

With `O=[N+]([O-])c1cccc([As]=[As]c2cccc([N+](=O)[O-])c2)c1` (stereo not drawn), the GI50 is 0.119 µM in the assay on UO-31 renal; 0.0961 µM in the assay with 786-0 renal; 0.143 µM with NCI-H226 lung; 0.0611 µM in the assay on SNB-75 CNS; 0.0275 µM in the assay with SR leukemia; 0.0433 µM in the assay on HOP-92 NSCLC. In addition, the GI50 is 0.0885 µM in the assay on UACC-62 melanoma, 0.103 µM in the assay with U251 CNS, 0.0437 µM in the assay on HCT-15 colon and 0.0327 µM in the assay with K-562 leukemia. Also, the TGI with UO-31 renal came to 0.255 µM; in the assay with 786-0 renal, 0.222 µM; in the assay with NCI-H226 lung it was 0.287 µM; in the assay with SNB-75 CNS, 0.206 µM; with SR leukemia, 0.1 µM; in the assay with HOP-92 NSCLC, 0.173 µM. Further, the TGI in the assay on UACC-62 melanoma came out at 0.212 µM; in the assay with U251 CNS it was 0.22 µM; in the assay on HCT-15 colon, 0.174 µM; in the assay with K-562 leukemia it was 0.106 µM.

Turning to `O=C(Nc1ccc(Cl)cc1)Nc1ccc(Nc2nncc3ccccc23)cc1`, the GI50 in the assay with UO-31 renal is 1.9 µM; in the assay with 786-0 renal, 3.09 µM; with NCI-H226 lung, 2.46 µM; in the assay with SNB-75 CNS, 1.88 µM; with SR leukemia it was 3.89 µM; in the assay with HOP-92 NSCLC, 2.55 µM. Besides, the GI50 is 0.958 µM in the assay on UACC-62 melanoma, 2.86 µM in the assay on U251 CNS, 1.59 µM with HCT-15 colon and 1.68 µM with K-562 leukemia. Besides, the TGI in the assay with UO-31 renal turned out to be 15.8 µM; with 786-0 renal, 25.2 µM; in the assay on NCI-H226 lung, 12.5 µM; in the assay on SNB-75 CNS, 8.67 µM; in the assay with SR leukemia it was 23.4 µM; in the assay on HOP-92 NSCLC it was 7.26 µM. Moreover, the TGI in the assay with UACC-62 melanoma was 7.97 µM; in the assay on U251 CNS it was 10.3 µM; in the assay with HCT-15 colon it was 11.8 µM; in the assay on K-562 leukemia, 26.4 µM.

For `COC(=O)c1cc2ccc(OC(C)=O)c(OC(C)=O)c2cn1`, the TGI amounted to 30 µM in the assay with UO-31 renal; 33 µM in the assay with 786-0 renal; 41.7 µM in the assay on NCI-H226 lung; 42 µM in the assay on SNB-75 CNS; 6.98 µM in the assay with SR leukemia; 32.4 µM in the assay with HOP-92 NSCLC. Besides, the TGI is 5.8 µM and 35.1 µM with UACC-62 melanoma; 28.2 µM in the assay on U251 CNS; 39 µM in the assay with HCT-15 colon; 7.32 µM and 3.75 µM in the assay with K-562 leukemia. Further, the figures for the GI50 in the assay with UACC-62 melanoma, in the assay on U251 CNS and with K-562 leukemia were 16.3 µM, 12.7 µM and 1.86 µM, respectively.

As to `Cc1c2c(nn1C)CSCc1cc(n(C)n1)CSc1cc(c3ccccc3c1)OCCCc1c(C(=O)O)n(C)c3c-2c(Cl)ccc13`, the GI50 with UO-31 renal was 5.07 µM; with 786-0 renal, 4.4 µM; in the assay with NCI-H226 lung it was 4.4 µM; in the assay on SNB-75 CNS, 4.35 µM; in the assay with SR leukemia, 0.47 µM; in the assay on HOP-92 NSCLC, 2.46 µM. Moreover, the GI50 in the assay on UACC-62 melanoma is 0.456 µM; with U251 CNS, 4.05 µM; in the assay on HCT-15 colon, 5.83 µM; with K-562 leukemia, 3.78 µM. Also, the TGI with UO-31 renal is 17.8 µM; in the assay with 786-0 renal, 17.8 µM; in the assay on NCI-H226 lung it was 23.2 µM; in the assay with SNB-75 CNS it was 18 µM; with SR leukemia, 7.25 µM; with HOP-92 NSCLC, 10.2 µM. In addition, the TGI with UACC-62 melanoma is 2.35 µM; in the assay with U251 CNS, 13.7 µM; in the assay on HCT-15 colon it was 18.9 µM; in the assay with K-562 leukemia, 16.8 µM.
